According to BindingDB's records for doi:10.1016/j.bioorg.2017.01.007 (Panjab University, 2017):

These compounds were tested against T1, Tyrosine-protein phosphatase non-receptor type 1 (Homo sapiens, UniProt P18031) (assay: In Vitro PTP1B Inhibition Assay).
T1 sequence (P18031 whole entry): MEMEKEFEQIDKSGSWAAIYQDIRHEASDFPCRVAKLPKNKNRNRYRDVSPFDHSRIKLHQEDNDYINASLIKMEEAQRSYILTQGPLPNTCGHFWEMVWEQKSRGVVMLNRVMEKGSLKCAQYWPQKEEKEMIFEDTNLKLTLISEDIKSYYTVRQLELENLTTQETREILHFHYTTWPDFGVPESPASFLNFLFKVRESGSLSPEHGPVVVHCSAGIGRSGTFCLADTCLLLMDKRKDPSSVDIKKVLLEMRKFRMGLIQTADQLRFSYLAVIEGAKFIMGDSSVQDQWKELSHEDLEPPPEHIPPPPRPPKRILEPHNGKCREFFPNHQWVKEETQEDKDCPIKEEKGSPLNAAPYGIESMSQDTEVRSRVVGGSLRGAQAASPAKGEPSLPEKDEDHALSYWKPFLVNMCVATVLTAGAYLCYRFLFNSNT
Protocol: 10 mM stock solution (in assay buffer containing 1% DMSO) of the test compounds were prepared. Taking suitable aliquots from this stock solution, five different concentrations were made by dilutions. […] A 96 well microtiter plate was used for carrying out the assay using 10 mM DMSO as control. The reaction was carried out in 96 well, flatbottomed microtiter plates at 10 mM concentration using DMSO as control.

| IC50 | SMILES |
| --- | --- |
| 59.9 µM | COc1cc(/C=C2\SC(=O)NC2=O)ccc1OS(=O)(=O)Cc1ccccc1 [(Z)-4-((2,4-dioxothiazolidin-5-ylidene)methyl)-2-methoxyphenyl phenylmethanesulfonate (20)] |
| 26.9 µM | COc1cc(/C=C2\SC(=O)NC2=O)ccc1OS(=O)(=O)c1c(C)cc(C)cc1C [(Z)-4-((2,4-dioxothiazolidin-5-ylidene)methyl)-2-methoxyphenyl-2,4,6-trimethylbenzenesulphonate (15)] |
| 50.4 µM | COc1cc(/C=C2\SC(=O)NC2=O)ccc1OS(=O)(=O)c1ccccc1[N+](=O)[O-] [(Z)-4-((2,4-dioxothiazolidin-5-ylidene)methyl)-2-methoxyphenyl-2-nitrobenzenesulfonate (19)] |
| 21.8 µM | COc1cc(/C=C2\SC(=O)NC2=O)ccc1OS(=O)(=O)c1ccc(Br)cc1 [(Z)-4-((2,4-dioxothiazolidin-5-ylidene)methyl)-2-methoxyphenyl-4-bromobenzenesulfonate (18)] |
| 25.3 µM | COc1cc(/C=C2\SC(=O)NC2=O)ccc1OS(=O)(=O)c1ccc(Cl)cc1 [(Z)-4-((2,4-dioxothiazolidin-5-ylidene)methyl)-2-methoxyphenyl-4-chlorobenzenesulfonate (17)] |
| 28.2 µM | COc1ccc(S(=O)(=O)Oc2ccc(/C=C3\SC(=O)NC3=O)cc2OC)cc1 [(Z)-4-((2,4-dioxothiazolidin-5-ylidene)methyl)-2-methoxyphenyl-4-methoxybenzene sulfonate (14)] |
| 19 µM | COc1cc(/C=C2\SC(=O)NC2=O)ccc1OS(=O)(=O)c1ccc(C)cc1 [(Z)-4-((2,4-dioxothiazolidin-5-ylidene)methyl)-2-methoxyphenyl-4-methylbenzenesulfonate (12)] |
| 7.31 µM | COc1cc(/C=C2\SC(=O)NC2=O)ccc1OS(=O)(=O)c1ccccc1 [(Z)-4-((2,4-dioxothiazolidin-5-ylidene)methyl)-2-methoxyphenylbenzenesulfonate (13)] |
| 8.73 µM | COc1cc(/C=C2\SC(=O)NC2=O)ccc1OS(C)(=O)=O [(Z)-4-((2,4-dioxothiazolidin-5-ylidene)methyl)-2-methoxyphenylmethane sulfonate (16)] |
| 61.4 µM | COc1cc(/C=C2\SC(=O)NC2=O)ccc1OS(=O)(=O)c1ccc2ccccc2c1 [(Z)-4-((2,4-dioxothiazolidin-5-ylidene)methyl)-2-methoxyphenylnaphthalene-2-sulfonate (21)] |
